From US20150038541A1, “COMPOSITION AND METHODS FOR CELL MODULATION” (APOSIGNAL BIOSCIENCE LLC, priority 2012, published 2015)

Tested on: HeLa cells
Test: FACS analysis after propidium iodide staining (cell cycle, apoptosis) of HeLa cells
Assay type: cell-based, human
Protocol: FIG. 15 illustrates that AS-7 evokes accumulation HeLa cells in the G0-G1 phase of the cell cycle. HeLa cells were harvested two days after treatment with or without AS-7, stained with propidium iodide and subjected to analysis by FACS (Fluorescence Activated Cell Sorter).
FIG. 17 illustrates that AS-7 blocks exit from the Go-G1 phase of the cell cycle. HeLa cells were treated with nocodazole which evoked accumulation of the cells in the G2-M phase of the cell cycle (Nocodazole Blocked). The cells were released from the nocodazole block and treated with or without AS-7. After 16 hours the cells were stained with propidium iodide and subjected to analysis by FACS (Fluorescence Activated Cell Sorter).
The appearance of essentially all of the AS-7 treated cells was indistinguishable from that of the untreated cells.
A single addition of 10 μM AS-7 for 1 day to 7 or more days was sufficient to evoke accumulation in the Go-G1 phase of the cell cycle (FIGS. 15 and 16) (data not shown). […] HeLa cells were treated with nocodazole (100 ng/ml) for 12 h which evoked accumulation of rounded, loosely attached cells in mitosis. The mitotic cells were harvested and treated with or without 10 μM AS-7 in the absence of nocodazole (Released, 16 hours).

Structure (SMILES): N#Cc1cccc(C(C(=O)NCC(c2ccccc2)c2ccccc2)N(CCc2c[nH]cn2)C(=O)c2ccccc2C(=O)c2ccccc2)c1 (stereo not drawn) [AS-7]
- induction of apoptosis (FACS, propidium iodide) (HeLa cells treated with AS-7 for several days, data not shown): failed to induce apoptosis
- cell cycle distribution (FACS, propidium iodide) (HeLa cells, 10 μM AS-7): evoked the accumulation
- cell cycle progression after release from nocodazole block (HeLa cells, 10 μM AS-7, 16 hours after release): blocked exit from the G0-G1 phase
